# Data as given in patent US10969390B2, “Method for evaluating efficacy of chemoradiotherapy against squamous cell carcinoma” (NATIONAL CANCER CENTER, priority 2014, dated 2021).
# Tests used:
# [1] = tested on: SIM2 stably expressing lines (KYSE510-SIM2-27 and -37, TE8-SIM2-2 and -3, T.Tn-SIM2-9 and -23) of esophageal squamous cell carcinoma cell lines; test: anticancer-agent sensitivity test of SIM2-gene stably expressing lines, two-dimensional culturing, viable cell count (trypan blue); assay type: cell-based; settings: for sensitivities to anticancer agents of SIM2 stably expressing lines in comparison with control-vector introduced lines: two-dimensional culture, 3 days, CDDP 2, 5, 10 μM, 5-FU 10 μM, DTX 1 nM, versus KYSE510-Mock, TE8-Mock, T.Tn-Mock
# Description: (§1) The SIM2 gene was introduced into TE8 obtained from RIKEN BRC and KYSE510 and T. Tn obtained from JCRB Cell Bank. The resultant was cultured in a medium containing 400 μg/ml of G-418 for approximately 2 weeks. The G418 resistant colonies were isolated and cultured. The SIM2 gene expression was confirmed by an RT-PCR method. Thus, SIM2-gene stably expressing lines were established. Cell lines in which only a GFP expression plasmid vector was introduced were prepared as control cell lines. To extract the total RNAs and evaluate the differentiation-inducing activities of the SIM2-gene stably expressing lines, the SIM2-gene stably expressing lines were each seeded into NanoCulture (registered trademark) Plate and then cultured with a normal medium for 3 days. The total RNA was extracted, and an RT-PCR method was performed. The cDNA was synthesized using SuperScript (registered trademark) III First-Strand Synthesis System for RT-PCR. The diluted cDNA was mixed with AccuPrime (registered trademark) Taq DNA Polymerase System (Invitrogen), primers, and nuclease-free water, and amplified using GeneAmp (registered trademark) PCR System 9700 (Applied Biosystems Inc.). The resultant was quantified and compared by agarose gel electrophoresis.
# To evaluate the sensitivities of the SIM2-gene stably expressing lines to cisplatin (CDDP), 5-fluorouracil (5-FU), and docetaxel (DTX), an anticancer-agent sensitivity test was conducted. The SIM2-gene stably expressing lines were each seeded into a 6-well plate, cultured with a normal medium for 1 day, and then cultured with a normal medium or a medium supplemented with CDDP (2 μM, 5 μM, 10 μM), 5-FU (10 μM), or DTX (1 nM) for 3 days. After the chemical treatment was completed, the cells were collected using 0.25% trypsin/EDTA and stained with trypan blue. After that, the number of viable cells was counted.
# [2] = tested on: SIM2 stably expressing lines (T.Tn-SIM2-9 and -23); test: cisplatin long-term sensitivity test of SIM2-gene stably expressing lines, three-dimensional culturing, viable cell count; assay type: cell-based; settings: 14 days, CDDP 5×10^−6 M, T.Tn-SIM2-9 and -23 versus T.Tn-Mock
# Description: as §1, with “The diluted cDNA was mixed with AccuPrime (registered trademark) Taq DNA Polymerase System (Invitrogen), primers, and nuclease-free water, and amplified using GeneAmp (registered trademark) PCR System 9700 (Applied Biosystems Inc.).” left out
# To evaluate the sensitivities of the SIM2-gene stably expressing lines to CDDP long-term administration, an anticancer-agent sensitivity test was conducted employing three-dimensional culturing. […] After that, the number of viable cells was counted.
SMILES,sensitivities to anticancer agents of SIM2 stably expressing lines in comparison with control-vector introduced lines [1],"CDDP effect in 3 days (two-dimensional culturing) ([1]; concentration near IC50, 3 days, FIG. 6)",sensitivities to CDDP of SIM2 stably expressing lines in comparison with control-vector introduced line [2]
O=c1[nH]cc(F)c(=O)[nH]1 [5-fluorouracil],increased,–,–
N.N.[Cl][Pt][Cl] [cisplatin],increased,significant but small,remarkably increased
CC(=O)O[C@@]12CO[C@@H]1C[C@H](O)[C@@]1(C)C(=O)[C@H](O)C3=C(C)[C@@H](OC(=O)[C@H](O)[C@@H](NC(=O)OC(C)(C)C)c4ccccc4)C[C@@](O)([C@@H](OC(=O)c4ccccc4)[C@H]21)C3(C)C [docetaxel],increased,–,–
